According to PubChem BioAssay (NCI):
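Where inhibition never reached the appropriate level, the endpoint shown equals the highest concentration tested. Otherwise, values were interpolated linearly from a five-concentration, 48-hour dose response in 96-well plates. GI50: concentration for 50% inhibition of growth. TGI: concentration producing complete growth inhibition.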

How the values were obtained:
Test in all cases: NCI anticancer screen, dose series, 48 h
HL-60(TB) leukemia = tested on: HL-60(TB) leukemia
MALME-3M melanoma = tested on: MALME-3M melanoma
UO-31 renal = tested on: UO-31 renal
OVCAR-4 ovarian = tested on: OVCAR-4 ovarian
OVCAR-8 ovarian = tested on: OVCAR-8 ovarian
HCT-15 colon = tested on: HCT-15 colon
MDA-MB-435 = tested on: MDA-MB-435
T-47D breast = tested on: T-47D breast
A498 renal = tested on: A498 renal
SNB-19 CNS = tested on: SNB-19 CNS

SMILES | GI50 (HL-60(TB) leukemia) | TGI (HL-60(TB) leukemia) | GI50 (MALME-3M melanoma) | TGI (MALME-3M melanoma) | GI50 (UO-31 renal) | TGI (UO-31 renal) | GI50 (OVCAR-4 ovarian) | TGI (OVCAR-4 ovarian) | GI50 (OVCAR-8 ovarian) | TGI (OVCAR-8 ovarian) | GI50 (HCT-15 colon) | TGI (HCT-15 colon) | GI50 (MDA-MB-435) | TGI (MDA-MB-435) | GI50 (T-47D breast) | TGI (T-47D breast) | GI50 (A498 renal) | TGI (A498 renal) | GI50 (SNB-19 CNS) | TGI (SNB-19 CNS)
COc1cccc(-n2ncc3c(N/N=C/c4ccc(C)cc4)ncnc32)c1 | > 25 µM | > 25 µM | 24.1 µM | > 25 µM | > 25 µM | > 25 µM | > 25 µM | > 25 µM | > 25 µM | > 25 µM | > 25 µM | > 25 µM | > 22.4 µM | > 25 µM | > 25 µM | > 25 µM | > 5.43 µM | > 25 µM | > 25 µM | > 25 µM
O=P(O)(O)OCC1OC(n2cnc3c(NCc4ccco4)ncnc32)C(O)C1O (centres undefined) | 0.231 µM | 0.601 µM | 5.09 µM | 40.9 µM | 0.993 µM | > 26.5 µM | 2.62 µM | > 41 µM | 0.861 µM | 6.9 µM | 0.701 µM | > 56.9 µM | 2.36 µM | > 25.7 µM | 3.24 µM | 17.3 µM | 3.32 µM | 11.7 µM | 4.18 µM | > 100 µM
COc1cc(OC)c(/C=C/C(=O)c2ccc(Nc3ncnc4ccccc34)cc2)c(OC)c1 | 0.389 µM | 2.19 µM | 0.799 µM | 2.65 µM | 1.44 µM | 3.99 µM | 1.21 µM | 3.05 µM | 1.34 µM | 3.54 µM | 0.798 µM | 24.8 µM | 0.13 µM | 0.522 µM | 1.51 µM | 14.3 µM | 0.282 µM | 2.13 µM | 1.23 µM | 14.5 µM
C=C1C(=O)O[C@H]2[C@H]1CC/C(Cn1cc(Cc3c[nH]c4ccccc34)nn1)=C\CC[C@@]1(C)O[C@@H]21 | 2.02 µM | 4.74 µM | 1.63 µM | 3.07 µM | 1.49 µM | 2.86 µM | 2.05 µM | 5.61 µM | 3.44 µM | 10.7 µM | 1.59 µM | 3.35 µM | 1.73 µM | 3.46 µM | 1.87 µM | 4.7 µM | 3.9 µM | 14.3 µM | 2.55 µM | 6.33 µM
O=C1NCN(c2ccccc2)C12CCN(CCCC(c1ccc(F)cc1)c1ccc(F)cc1)CC2 | 1.82 µM | 4 µM | 1.66 µM | 3.46 µM | 1.28 µM | 3.96 µM | 2.13 µM | 9.98 µM | 1.6 µM | 3.05 µM | 2.09 µM | 4.71 µM | 1.75 µM | 3.77 µM | 2.43 µM | 6.49 µM | 1.18 µM | 4.94 µM | 2.99 µM | 12.8 µM
CC(=Nc1ccccc1)C1=C(O)C(Cc2cccc(F)c2)NC1=O (centres undefined) | 0.0334 µM | – | 0.0419 µM | > 100 µM | 0.0789 µM | > 100 µM | 0.345 µM | > 100 µM | 0.122 µM | > 100 µM | 0.0444 µM | > 100 µM | 0.018 µM | 0.056 µM | 0.0425 µM | > 100 µM | 0.0356 µM | 0.426 µM | 0.156 µM | > 100 µM
CC/C=C\C[C@H](O)C/C=C1/C(=O)C=C[C@@H]1C/C=C\CCCC(=O)OC(C)C | 0.824 µM | 6.71 µM | 1.64 µM | 3.75 µM | 1.84 µM | 3.84 µM | 2.92 µM | 14.4 µM | 2.8 µM | 8.38 µM | 0.674 µM | 2.75 µM | 0.572 µM | 2.7 µM | 1.37 µM | 7 µM | 3 µM | 8.12 µM | 3.3 µM | 12.8 µM
c1ccc2cc(Cn3cc[n+](Cc4ccc5ccccc5c4)c3)ccc2c1 | 0.264 µM | 1.35 µM | 0.413 µM | 2.49 µM | 12.1 µM | 28.8 µM | 0.339 µM | 2.97 µM | 1.64 µM | 12.3 µM | 14.9 µM | 29.5 µM | 0.543 µM | 2.29 µM | 0.385 µM | 5.24 µM | 0.0254 µM | 4.69 µM | 0.979 µM | 6.97 µM
COc1ccc(-c2nsc3c2NC(=O)CC3c2ccc3c(c2)OCCO3)cc1 (centres undefined) | 0.326 µM | 12.5 µM | 0.336 µM | > 100 µM | 2.19 µM | > 100 µM | 2.86 µM | > 100 µM | 1.02 µM | > 100 µM | 0.504 µM | > 100 µM | 0.173 µM | 0.438 µM | 0.454 µM | > 100 µM | 0.212 µM | 1.03 µM | 0.924 µM | > 100 µM
